Laboratory results: US20250032676A1, “3D HYDROGEL COMPOSITE HAVING CANCER CELL APOPTOTIC EFFECT AND PREPARATION METHOD THEREOF” (DONGGUK UNIVERSITY INDUSTRY-ACADEMIC COOPERATION FOUNDATION, priority 2022, published 2025)

Test system: MDA-MB-231 breast cancer cells
Test: Cell killing by 6-MP released from hydrogel versus 6-MP at same concentration, WST-1 assay
Format: cell-based
Conditions: 24 h treatment, same 6-MP concentration; FIG. 12
Method: The apoptotic effect resulting from the release of anticancer agents was confirmed by comparing the effects of anticancer agents released due to chemical bond cleavage during photoirradiation with that of anticancer agents at the same concentration.
The three-dimensional hydrogels prepared according to Examples 1 to 3 to have a diameter of 8 mm and a height of 2 mm were stored together with 1 mL of PBS at 37° C. and 100 RPM. MDA-MB-231 breast cancer cells were inoculated at a density of 4×10^4 cells per well on a 48-well plate prepared with DMEM supplemented with 10% FBS and 1% penicillin/streptomycin and cultured at 37° C. for one day. After removal of the existing medium, cancer cells were treated with 50 μL of fresh medium and 150 μL of PBS containing released 6-MP, and incubated at 37° C. for 24 h. For the WST-1 assay, the cells were washed with PBS, treated with EZ-Cytox solution in each experimental group, incubated at 37° C. for 2 hours, and then measured by absorbance at 450 nm to confirm the cell apoptosis effect.

| Structure (SMILES) | breast cancer cells died / killed [%] |
| --- | --- |
| Sc1ncnc2nc[nH]c12 [6-MP, 6-mercaptopurine] | 21 |
| S=c1nc[nH]c2nc[nH]c12 | 70 |
